Assay results taken from patent US11180495B2 (Abbisko Therapeutics Co., Ltd., priority 2017, dated 2021).
Read-outs that look alike come from different tables or passages of the source.

Tests used:
CSF-1R = target: T1, CSF-1R (Homo sapiens, UniProt P07333); assay: CSF-1R in vitro biochemical kinase study (ADP-Glo assay); conditions: 3.95 nM CSF-1R, 500 μM ATP, 30° C. 60 min, read-out: Enzymatic experiment CSF-1R IC50
T1 construct: 3.95 nM of CSF-1R, 500 μM of ATP and 0.2 mg/mL of polypeptide
Protocol: In the present invention, the inhibitory activity of compounds against the CSF-1R activity was determined by using CSF-1R ADP-Glo assay. The compound-mediated inhibition effect was achieved by inhibiting the production of ADP from consumption of ATP, and the activities of compounds were evaluated by using the ADP-Glo kit (Promega, cat. No. V9101). The specific experimental process was as follows: • 1. The kinase reaction performed in the present invention was carried out in a 384-well plate (Perkinelmer, cat. No. 6007290), and 3.95 nM of CSF-1R, 500 μM of ATP and 0.2 mg/mL of polypeptide (Poly (Glu4, Try1), Sigma, cat. No. P0275) were respectively weighed and added to each well: • 2. following reagents were then added to each well to reach the final reaction system: 40 mM Tris, pH 7.5, 20 mM MgCl2, 0.01% Triton X-100, 0.1 mg/mL BSA, 2.5 mM DTT and 0.1% DMSO; • 3. the reaction was conducted at 30° C. for 60 min; • 4. then an equal volume of stop solution (ADP-Glo) was added to the kinase reaction system; • 5. the mixed solution was incubated at 25° C. for 60 min, and the kinase reaction was then terminated; • 6. a two-fold volume of detection reagent was then added to each well; • 7. the mixed solution was incubated at 25° C. for 30 min; • 8. the compound IC50 value was measured by using a plate reader (Tecan, M1000) and a four-parameter curve was generated in Graphpad Prism. B. KIT/PDGFRA In Vitro Biochemical Kinase Study • 1. Preparation of 1-fold kinase buffer and stop solution • 1.1 1-fold kinase buffer: 50 mM HEPES, pH 7.5, 0.0015% Brij-35. • 1.2 stop solution: 100 mM HEPES, pH 7.5, 0.015% Brij-35, 0.2% Coating Reagent #3 50 mM EDTA • 2. Preparation of compound solution • 2.1 Dilution of compound solution • 1) The final concentration of the compound solution was 40 μM. and the concentration of the prepared stock solution was 50 times of the final concentration, i.e., 2 mM. • 2) 80 μL of 100% DMSO was added to the second well of the 96-well plate, then 20 μL of 10 mM compound solution was added, and thereby 2 mM compound solution was prepared, 60 μL of 100% DMSO was added to other wells, 20 μL of compound was taken from the second well, added to the third well and diluted by 4 times. This serial 4-time dilution was conducted in sequence for the total of 10 concentrations. • 2.2 5-fold compound solution transferred to a reaction plate • 1) 10 μL of solution was taken from each well of the above 96-well plate and added to another 96-well plate, and 90 μL of kinase buffer was added. • 2) 5 μL of solution was taken from the above 96-well plate and added to a 384-well reaction plate. • 2.3 Kinase reaction • 1) KIT/PDGFRA kinase was added to the 1-fold kinase buffer solution to obtain a 2.5-fold kinase solution. • 2) FAM-labeled polypeptide and ATP were added to the 1-fold kinase buffer solution to obtain a 2.5-fold substrate solution. • 3) 10 μL of 2.5-fold kinase solution was added to the 384-well reaction plate, which already contained 5 μL of 5-fold compound in 10% DMSO. And the mixed solution was incubated at room temperature for 10 min. • 4) 10 μL of 2.5-fold substrate solution was added to the 384-well reaction plate. • 5) Kinase reaction and termination: the mixed solution was incubated at 28° C. for a certain period of time, and 25 μL of stop solution was added to stop the reaction. • 2.4 Data reading of Caliper EZ Reader II • 2.5 Calculation of percent inhibition and IC50 • 1) Percent conversion data were copied from the Caliper EZ Reader. • 2) Percent conversion was converted into percent inhibition data, wherein, max referred to percent conversion of the DMSO control, and min referred to percent conversion of the negative control without kinase activity. Percent inhibition=(max−conversion)/(max−min)*100. • 3) The IC50 value was fitted with XLFit excel add-in version 5.4.0.8: Fitting formula: Y=Bottom+(Top−Bottom)/(1+(IC50/X)^HillSlope).

[1] = test system: M-NFS-60 mouse myeloid leukemia lymphocytes; assay: CSF-1R-related cell proliferation experiment (Cell Titer Glo); type: cell-based; conditions: 72 h, M-NFS-60 cells, 3 days, CTG
Protocol: Functional effects of compounds on cell proliferation were evaluated by using Cell Titer Glo (CTG) study in the present invention. M-NFS-60 mouse myeloid leukemia lymphocytes (cat. No. CCBJ078) from National Institutes For Food and Drug Control were cultured in the incubator under conditions of RPMI 1640 (Gibco, cat. No. 11875-119), 10% fetal bovine serum (Gibco, 10099-141), human 10 ng/mL M-CSF macrophage colony-stimulating factor (R&D, cat. No. MVN0915101), 37° C. and 5% CO2. Since ATP is an index for viable cell metabolism, CTG (Promega, #G7573) reagent is a homogeneous detection method for detecting the number of viable cells in the culture by quantifying ATP. Therefore, compound-mediated inhibition for cell proliferation/survival was evaluated by quantifying ATP in cells, and the specific experimental process was as follows: • 1. The cells were plated into a tissue-culture-medium-treated 96-well plate (Costar #3904) with 5,000 cells/well/80 μL fresh culture medium: • 2. 24 hours later, 10 μL culture medium containing testing compound with 10-fold of final concentration was added to each well; • 3. 10 μL of culture medium containing M-CSF with 10-fold of the final concentration was then added to each well: • 4. dosage effect was evaluated by testing the 3-fold serial dilutions of the compound; • 5. after the cells were incubated for 3 days at 37° C. and 5% CO2, the inhibition on cell survival was quantified after 50 μL of CTG was added and the luminescence assay was performed; • 6. the compound concentration leading to half maximal inhibitory (IC50) and the compound concentration leading to absolute half maximal inhibitory (Absolute IC50) were measured by a plate reader (M1000, Tecan) and a four-parameter curve fit in Graphpad Prism 7. D. CSF-1R-Related Cell Proliferation Experiment

[2] = test system: M-07e human cytomegalic leukemia cells; assay: KIT-related cell proliferation experiment (Cell Titer Glo); type: cell-based; conditions: 72 h, M-07e cells, SCF, 3 days, CTG, read-out: Cytological experiment KIT IC50
Protocol: (§1) Functional effects of compounds on the proliferation of several cell lines were evaluated by Cell Titer Glo (CTG) studies in the present invention, and effects of the compounds on the proliferation of different cells were evaluated to determine the selectivity degree of the compounds. In the study, M-07e human cytomegalic leukemia cells (cat. No. CBP60791) from Nanjing Kebai Biotechnology Co., Ltd. were cultured in an incubator under conditions of RPMI1640 (Gibco, cat. No. 11875-119), 20% fetal bovine serum (Gibco, 10099-141), human 10 ng/mL GM-CSF granulocyte macrophage colony-stimulating factors (R&D, cat. No. 215-GM-010), 37° C. and 5% CO2; and Kasumi-1 human acute myeloblastic leukemia cells (cat. No. CBP60524) were cultured in an incubator under conditions of RPMI1640 (Gibco, cat. No. 11875-119), 20% fetal bovine serum (Gibco, 10099-141), 37° C. and 5% CO2; NCI-H1703 human non-small cell lung squamous carcinoma cells (cat. No. CBP60115) were cultured in an incubator under conditions of RPMI1640 (Gibco, cat. No. 11875-119), 10% fetal bovine serum (Gibco, 10099-141), 37° C. and 5% CO2; and MV-4-11 human acute monocytic leukemia cells (cat. No. CBP60522) were cultured in an incubator under conditions of IMDM (Invitrogen, cat. No. 12440053), 20% fetal bovine serum (Gibco, 10099-141), 37° C. and 5% CO2. Since ATP is an index for viable cell metabolism, CTG (Promega, #G7573) reagent is a homogeneous detection method for detecting the number of viable cells in the culture by quantifying ATP. Therefore, compound-mediated inhibition for cell proliferation/survival was evaluated by quantifying ATP content in cells, and the specific experimental process was as follows.
I) M-07e Human Cytomegalic Leukemia Cell: • 1. The cells were plated into a tissue-culture-medium-treated 96-well plate (Costar #3904) with 3500 cells/well/80 μL fresh culture medium, and cultured for 24 hrs; • 2. the next day, 10 μL of culture medium containing testing compound with 10-fold of final concentration was added to each well; • 3.

[3] = test system: MV-4-11 human acute monocytic leukemia cells; assay: FLT3-related cell proliferation experiment (Cell Titer Glo); type: cell-based; conditions: MV4-11, 72 h, MV-4-11 cells, 3 days, CTG, read-out: Cytological experiment FLT3 IC50
Protocol: as §1
III) MV-4-11 Human Acute Monocytic Leukemia Cell • 1.

[4] = test system: NCI-H1703 human non-small cell lung squamous carcinoma cells; assay: PDGFRA-related cell proliferation experiment (Cell Titer Glo); type: cell-based; conditions: 72 h, 3 days, CTG, read-out: Cytological experiment PDGFRA IC50
Protocol: as §1
II) NCI-H1703 Human Non-Small Cell Lung Squamous Carcinoma Cell • 1.

[5] = absolute half maximal inhibitory concentration, read-out: Cytological experiment CSF-1R Absolute IC50
[6] = read-out: Cytological experiment CSF1R IC50

T1 sequence (P07333 20-972): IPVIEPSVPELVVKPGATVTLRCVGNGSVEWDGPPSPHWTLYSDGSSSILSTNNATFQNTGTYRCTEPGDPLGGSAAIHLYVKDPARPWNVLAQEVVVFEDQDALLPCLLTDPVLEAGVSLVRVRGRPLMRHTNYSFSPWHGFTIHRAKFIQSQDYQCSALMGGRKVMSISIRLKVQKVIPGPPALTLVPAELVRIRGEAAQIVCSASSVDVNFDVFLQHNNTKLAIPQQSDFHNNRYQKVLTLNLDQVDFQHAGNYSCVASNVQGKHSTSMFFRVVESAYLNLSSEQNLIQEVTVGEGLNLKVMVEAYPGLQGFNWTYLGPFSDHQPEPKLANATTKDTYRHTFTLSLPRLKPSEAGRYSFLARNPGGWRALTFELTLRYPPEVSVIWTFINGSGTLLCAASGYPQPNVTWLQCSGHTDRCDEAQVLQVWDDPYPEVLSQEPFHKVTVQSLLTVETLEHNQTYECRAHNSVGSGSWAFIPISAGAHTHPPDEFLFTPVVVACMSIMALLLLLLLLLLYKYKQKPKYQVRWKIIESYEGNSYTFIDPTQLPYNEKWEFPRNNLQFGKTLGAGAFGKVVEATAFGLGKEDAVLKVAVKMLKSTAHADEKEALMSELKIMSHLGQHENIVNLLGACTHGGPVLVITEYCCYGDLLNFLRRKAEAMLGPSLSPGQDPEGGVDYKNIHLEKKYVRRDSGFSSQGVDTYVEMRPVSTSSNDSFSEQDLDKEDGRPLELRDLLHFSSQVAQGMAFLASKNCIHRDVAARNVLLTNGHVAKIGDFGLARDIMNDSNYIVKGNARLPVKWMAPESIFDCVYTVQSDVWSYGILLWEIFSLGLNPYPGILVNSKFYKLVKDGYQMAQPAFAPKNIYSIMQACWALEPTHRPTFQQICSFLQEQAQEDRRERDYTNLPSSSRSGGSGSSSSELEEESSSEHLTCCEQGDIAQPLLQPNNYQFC

IC50 (CSF-1R)	IC50 [1, 5]	IC50 [1, 6]	IC50 [2]	IC50 [3]	IC50 [4]	SMILES
19.3 nM	39.9 nM	215 nM	–	–	–	CC(C)Nc1ncc(-c2ccc(Cc3c[nH]c4ncccc34)cn2)c(=O)[nH]1 [Example 2, 5-(5-((1H-pyrrolo[2,3-b]pyridin-3-yl)methyl)pyridin-2-yl)-2-(isopropylamino)pyrimidin-4(3H)-one]
39.1 nM	47.4 nM	50.8 nM	–	–	–	COCCOc1cnc2[nH]cc(Cc3ccc(-c4cnc(NC(C)C)[nH]c4=O)nc3C)c2c1 [Example 3, 2-(isopropylamino)-5-(5-((5-(2-methoxyethoxy)-1H-pyrrolo[2,3-b]pyridin-3-yl)methyl)-6-methylpyridin-2-yl)pyrimidin-4(3H)-one]
36.4 nM	210 nM	235 nM	–	–	–	Cc1nc(-c2cnc(NC(C)C)[nH]c2=O)ccc1Cc1c[nH]c2ncc(OCCO)cc12 [Example 4, 5-(5-((5-(2-hydroxyethoxy)-1H-pyrrolo[2,3-b]pyridin-3-yl)methyl)-6-methylpyridin-2-yl)-2-(isopropylamino)pyrimidin-4(3H)-one]
88.1 nM	–	–	–	–	–	Cc1nc(-c2cnc(NC(C)C)[nH]c2=O)ccc1C(=O)c1c[nH]c2ncccc12 [Example 6, 2-(isopropylamino)-5-(6-methyl-5-(1H-pyrrolo[2,3-b]pyridine-3-carbonyl)pyridin-2-yl)pyrimidin-4(3H)-one]
331 nM	–	–	–	–	–	COC(c1ccc(-c2cnc(NC(C)C)n(C)c2=O)nc1C)c1c[nH]c2ncc(Cl)cc12 (stereo not drawn) [Example 8, 5-(5-((5-chloro-1H-pyrrolo[2,3-b]pyridin-3-yl)(methoxy)methyl)-6-methylpyridin-2-yl)-2-(isopropylamino)-3-methylpyrimidin-4(3H)-one]
315 nM	–	–	–	–	–	Cc1nc(-c2cnc(NC(C)C)n(C)c2=O)ccc1C(O)c1c[nH]c2ncc(Cl)cc12 (stereo not drawn) [Example 9, 5-(5-((5-chloro-1H-pyrrolo[2,3-b]pyridin-3-yl)(hydroxy)methyl)-6-methylpyridin-2-yl)-2-(isopropylamino)-3-methylpyrimidin-4(3H)-one]
73.4 nM	–	–	–	–	–	Cc1nc(-c2cnc(NC(C)C)n(C)c2=O)ccc1C(=O)c1c[nH]c2ncc(Cl)cc12 [Example 11, 5-(5-(5-chloro-1H-pyrrolo[2,3-b]pyridine-3-carbonyl)-6-methylpyridin-2-yl)-2-(isopropylamino)-3-methylpyrimidin-4(3H)-one]
289 nM	296 nM	315 nM	–	–	–	Cc1nc(-c2cnc(NC(C)C)n(C)c2=O)ccc1C(C)c1c[nH]c2ncc(Cl)cc12 (stereo not drawn) [Example 12, 5-(5-(1-(5-chloro-1H-pyrrolo[2,3-b]pyridin-3-yl)ethyl)-6-methylpyridin-2-yl)-2-(isopropylamino)-3-methylpyrimidin-4(3H)-one]
–	56.4 nM	67.4 nM	978 nM	3040 nM	3540 nM	CCN1CCCn2c1ncc(-c1ccc(Cc3c[nH]c4ncccc34)c(C)n1)c2=O [Example 19, 3-(5-((1H-pyrrolo[2,3-b]pyridin-3-yl)methyl)-6-methylpyridin-2-yl)-9-ethyl-6,7,8,9-tetrahydro-4H-pyrimido[1,2-a]pyrimidin-4-one]
168 nM	703 nM	534 nM	–	–	–	Cc1nc(-c2cnc3n(c2=O)CCCN3C)ccc1C(=O)c1c[nH]c2ncccc12 [Example 24, 9-methyl-3-(6-methyl-5-(1H-pyrrolo[2,3-b]pyridine-3-carbonyl)pyridin-2-yl)-6,7,8,9-tetrahydro-4H-pyrimido[1,2-a]pyrimidin-4-one]
48.1 nM	622 nM	553 nM	–	–	–	Cc1nc(-n2ccc3c(ncn3C(C)C)c2=O)ccc1Cc1c[nH]c2ncc(Cl)cc12 [Example 25, 5-(5-((5-chloro-1H-pyrrolo[2,3-b]pyridin-3-yl)methyl)-6-methylpyridin-2-yl)-1-isopropyl-1,5-dihydro-4H-imidazo[4,5-c]pyridin-4-one]
